The values that follow come from patent EP1656933A1, “A medicinal composition comprising L-alanine for non-alcoholic fatty liver disease and/or non-alcoholic steatohepatitis and use therof” (Ajinomoto Co., Inc., priority 2004, dated 2006).

Structures are written as SMILES.

The test system of data set [1] is choline-deficient diet (hereinafter CDD) rat model. The experiment in a line: Choline-deficient diet (CDD) rat model showing NASH-like pathological change in the liver. The class given is in vivo, Male Wistar rats. An excerpt:
Male Wistar rats (7 weeks of age, 5 rats per group) received CDD (Dyets Co.) for 4 weeks. […] On the other hand, in the group of 5 rats received CDD mixed with 4% L-alanine for 4 weeks, one rat is normalized in liver weight (10.6g).

The test system of data set [2] is HFD-induced fatty liver rat model. The experiment in a line: High-fat diet (HFD)-induced fatty liver rat model, hepatic triglyceride contents. As to conditions: diet mixed with 4% L-alanine for 6 weeks; one rat of 6, in the level of SD group. The class given is in vivo, Male GK rats. On the procedure:
It has been supposed that the increase of the amount of fat intake in the last few decades is one of the causes of the recent increase of the number of patients with NASH. Therefore, the effect of L-alanine on the hepatic triglyceride contents in the high-fat diet (hereinafter HFD)-induced fatty liver rat model. Male GK rats (9 weeks of age, 6 rats per group) received HFD (containing 30% beef tallow) for 6 weeks. Triglyceride contents in the liver tissue was increased to 29.1 to 49.3 mg per gram of liver tissue, compared with those (14.1 to 24.2 mg) in the group fed with standard diet (containing 5% soy-been oil; hereinafter SD). Pioglitazone is a drug, which acts as an insulin-sensitizer for the patients with diabetes. Recent clinical pilot studies raise the possibility of clinical utility of pioglitazone for NASH. […] On the other hand, in the group of 6 rats received […] mixed with 4% L-alanine for 6 weeks, one rat is reduced in the liver triglyceride contents (19.6 mg) in the level of SD group. In addition, weight gain was reported as the main side effect in a pilot clinical study of piogritazone for NASH.

On the set-up of data set [3]: species or system Male GK rats. As to conditions: rat, in vivo. An excerpt:
It has been supposed that the increase of the amount of fat intake in the last few decades is one of the causes of the recent increase of the number of patients with NASH. Therefore, the effect of L-alanine on the hepatic triglyceride contents in the high-fat diet (hereinafter HFD)-induced fatty liver rat model. Male GK rats (9 weeks of age, 6 rats per group) received HFD (containing 30% beef tallow) for 6 weeks.

Regarding `C[C@H](N)C(=O)O` [L-alanine], the liver weight in data set [1] (CDD mixed with 4% L-alanine for 4 weeks, one rat of 5 (normalized), CDD alone 14.5 to 20.0 g) worked out at 10.6 g. Besides, in data set [1] (CDD mixed with drug for 4 weeks, histological examination, UDCA all of 5 rats, L-alanine the one rat of 5 with normalized liver weight), the “macrovesicular hepatic steatosis / histological fat accumulation in the liver” value was “not recognized”. Also, the liver triglyceride contents in data set [2] is recorded as 19.6 mg. For the same compound, in data set [3], the “Body Weight (g) Post (at 6 weeks)” value stood at 331.8 ± 20.5 g and the “Body Weight (g) Pre” value worked out at 219.8 ± 13.0 g.

Take `CCc1ccc(CCOc2ccc(CC3SC(=O)NC3=O)cc2)nc1` (stereo not drawn) [pioglitazone, reference compound]: in data set [3], the “Body Weight (g) Pre” value came out at 222.1 ± 9.9 g.
